Measured values from PubChem BioAssay (NCI).
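48-hour exposure; five concentrations; linearly interpolated endpoints. At the TGI there is no net growth.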 Where a SMILES comes first, the peptide text is derived from it. [ ]: non-standard residue; d: D form. The star is where a group is joined. X28 = COC1=CC(=O)N(C(=O)[C@@H](O*)C(C)C)[C@H]1Cc1ccccc1; NMeL = CN[C@@H](CC(C)C)C(=O)O; Cbz = O=C(OCc1ccccc1)*

Key:
Test in all cases: NCI tumour cell line growth inhibition, 48 h
MALME-3M melanoma = system: MALME-3M melanoma
NCI-H522 lung = system: NCI-H522 lung
HCC-2998 colon = system: HCC-2998 colon
HT29 colon = system: HT29 colon
HS 578T breast = system: HS 578T breast
786-0 renal = system: 786-0 renal
UO-31 renal = system: UO-31 renal
SF-539 CNS = system: SF-539 CNS
NCI-H23 lung = system: NCI-H23 lung
PC-3 prostate = system: PC-3 prostate
A498 renal = system: A498 renal
DU-145 prostate = system: DU-145 prostate
TK-10 renal = system: TK-10 renal
HOP-92 NSCLC = system: HOP-92 NSCLC
NCI/ADR-RES ovarian = system: NCI/ADR-RES ovarian
RXF 393 renal = system: RXF 393 renal
UACC-257 melanoma = system: UACC-257 melanoma
OVCAR-4 ovarian = system: OVCAR-4 ovarian
T-47D breast = system: T-47D breast

Compound | TGI (MALME-3M melanoma) | TGI (NCI-H522 lung) | TGI (HCC-2998 colon) | TGI (HT29 colon) | TGI (HS 578T breast) | TGI (786-0 renal) | TGI (UO-31 renal) | TGI (SF-539 CNS) | TGI (NCI-H23 lung) | TGI (PC-3 prostate) | TGI (A498 renal) | TGI (DU-145 prostate) | TGI (TK-10 renal) | TGI (HOP-92 NSCLC) | TGI (NCI/ADR-RES ovarian) | TGI (RXF 393 renal) | TGI (UACC-257 melanoma) | TGI (OVCAR-4 ovarian) | TGI (T-47D breast)
COC(=O)C1(Cc2ccc3c(c2)CCC3)Cc2cc3c(cc2C1=O)CCC3 (stereo not drawn) | > 46.4 µM | > 31.6 µM | 38.1 µM | > 46.4 µM | > 46.4 µM | > 46.4 µM | > 46.4 µM | > 46.4 µM | > 46.4 µM | > 46.4 µM | > 31.6 µM | > 46.4 µM | > 46.4 µM | 42.9 µM | > 46.4 µM | > 46.4 µM | > 46.4 µM | > 46.4 µM | > 46.4 µM
C/C(=N\Nc1ncnc2ccccc12)c1ccccn1 | 1.58 µM | 1.53 µM | 36 µM | > 46.6 µM | 47.5 µM | 12.7 µM | 1.75 µM | 3.29 µM | 16.4 µM | 31.6 µM | 16.4 µM | 13.7 µM | 18.6 µM | 7.75 µM | 0.551 µM | 17.3 µM | 8.65 µM | > 51.5 µM | 20.7 µM
CC1=NN(c2cccc(Cl)c2)C2(C1)SCC(=O)N2c1nc2ccccc2s1 (stereo not drawn) | > 100 µM | 75.5 µM | 38.5 µM | 63.8 µM | > 100 µM | 56.1 µM | 57.4 µM | 45.8 µM | 84.5 µM | 65.1 µM | 89.8 µM | > 100 µM | 74.1 µM | > 100 µM | > 100 µM | 44.9 µM | 57.7 µM | > 100 µM | 84.4 µM
CC1(C)OCC(C2OC(=O)C(OCc3ccccc3)=C2OCc2ccccc2)O1 (stereo not drawn) | 93.9 µM | 78.4 µM | > 100 µM | > 100 µM | > 100 µM | > 100 µM | > 100 µM | > 100 µM | 92.5 µM | 78.1 µM | 90.5 µM | > 100 µM | > 100 µM | > 100 µM | > 100 µM | > 100 µM | 96.8 µM | > 100 µM | > 100 µM
COc1cc(C(=O)OC2CC(C)=CC[C@@]3(C)CC[C@](O)(C(C)C)C23)ccc1O (stereo partly drawn) | 34.3 µM | 28 µM | 28.8 µM | 29.8 µM | 40.9 µM | 31.3 µM | 30.4 µM | 29.7 µM | 32.6 µM | 31.9 µM | 33.7 µM | 32.4 µM | 30.1 µM | 30.5 µM | 37.6 µM | 35.4 µM | 29.6 µM | 30 µM | 47.6 µM
CCOC(=O)c1[nH]n(-c2ccccc2)c(=O)c1C=NC(=S)C(N)=S | > 100 µM | 35.5 µM | > 100 µM | > 100 µM | > 100 µM | 38.2 µM | 42.2 µM | 57.4 µM | > 100 µM | > 100 µM | > 100 µM | > 100 µM | > 100 µM | > 100 µM | > 100 µM | 65.1 µM | > 100 µM | > 100 µM | 41.8 µM
Cc1cc2nc(NS(=O)(=O)c3cc(C)c(Cl)cc3S)[nH]c2cc1C | > 100 µM | > 100 µM | > 100 µM | > 100 µM | > 100 µM | > 100 µM | > 100 µM | > 100 µM | > 100 µM | > 100 µM | > 100 µM | > 100 µM | > 100 µM | > 100 µM | > 100 µM | > 100 µM | > 100 µM | > 100 µM | > 100 µM
CCOC(=S)SC/C(=N\OC(C)(C)OC)c1ccccc1 | 75.9 µM | 59.1 µM | 61.8 µM | 58.3 µM | > 100 µM | > 100 µM | 95.8 µM | > 100 µM | > 100 µM | > 100 µM | > 100 µM | > 100 µM | > 100 µM | 63.8 µM | > 100 µM | 70 µM | > 100 µM | > 100 µM | 63.1 µM
COC1=CC(=O)N(C(=O)[C@@H](OC(=O)[C@@H]2CCCN2C(=O)[C@@H]2CCCN2C(=O)[C@H](CC(C)C)N(C)C(=O)[C@@H](NC(=O)[C@@H](NC(=O)OCc2ccccc2)C(C)C)C(C)C)C(C)C)[C@H]1Cc1ccccc1 (Cbz-VV[NMeL]PP-X28) | > 100 µM | > 100 µM | > 100 µM | > 100 µM | > 100 µM | > 100 µM | > 100 µM | 43.8 µM | > 100 µM | 76.8 µM | 56.1 µM | > 100 µM | > 100 µM | > 100 µM | > 100 µM | 38.9 µM | > 100 µM | > 100 µM | > 100 µM
O=C(Nc1ccc(Cl)cc1)c1cc(S(=O)(=O)NC2=NC(c3ccccc3)c3cc(Cl)ccc3N2)c(SSc2cc(Cl)c(C(=O)Nc3ccc(Cl)cc3)cc2S(=O)(=O)NC2=NC(c3ccccc3)c3cc(Cl)ccc3N2)cc1Cl (stereo not drawn) | > 100 µM | > 100 µM | > 100 µM | > 100 µM | > 100 µM | > 100 µM | > 100 µM | > 100 µM | > 100 µM | > 100 µM | > 100 µM | > 100 µM | > 100 µM | > 100 µM | > 100 µM | > 100 µM | > 100 µM | > 100 µM | > 100 µM
COc1ccc(C2c3c(-c4ccccc4)nn(-c4ccccc4)c3Oc3ncn(N)c(=N)c32)cc1OC (stereo not drawn) | 3.24 µM | 4.15 µM | 2.76 µM | 4.32 µM | 4.37 µM | 3 µM | 3.84 µM | 2.6 µM | 6.66 µM | 4.08 µM | 26 µM | 8.78 µM | 4.24 µM | 11 µM | 6.66 µM | 4.53 µM | 3.82 µM | 7.33 µM | 4.48 µM
CCN(CC)CCNc1ccc2nnn3c4ccc(OC(C)=O)cc4c(=O)c1c23 | 16.3 µM | 5.92 µM | 17.4 µM | 11.4 µM | 19.1 µM | > 38.1 µM | 12.3 µM | 9.47 µM | 18.9 µM | 17.3 µM | 21 µM | 15.1 µM | 16.7 µM | 17.7 µM | 19.1 µM | 6.19 µM | 24.9 µM | 8.73 µM | 31.1 µM
